Measurements: US5480879A, “Quinolonecarboxylic acids” (Bayer Aktiengesellschaft, priority 1992, dated 1996)
Converted amounts (≈) assume the structure as drawn.

What was measured:
Assay in all cases: MIC in microtitre plates, brain-heart infusion broth
Type in all cases: cell-based
[1] = test system: Enterococcus faecalis 27101; details: about 10^5 microorganisms/ml inoculum
Description: (§1) The determination of the "minimum inhibitory concentrations" (MIC) was effected in mitrotitre plates using brain-heart infusion broth, with about 10^5 microorganisms/ml being employed as the inoculum.

[2] = test system: Enterococcus faecalis 9790; details: about 10^5 microorganisms/ml inoculum
Description: as §1

Escherichia coli Neumann = details: about 10^5 microorganisms/ml inoculum
Description: as §1

Klebsiella sp. 63 = details: about 10^5 microorganisms/ml inoculum
Description: as §1

[3] = test system: Serratia marcescens 16040; details: about 10^5 microorganisms/ml inoculum
Description: as §1

[4] = test system: Staphylococcus aureus 133; details: about 10^5 microorganisms/ml inoculum
Description: as §1

[5] = test system: Staphylococcus aureus 1756; details: about 10^5 microorganisms/ml inoculum
Description: as §1

[6] = test system: Staphylococcus aureus ICB 25701; details: ICB25701, about 10^5 microorganisms/ml inoculum
Description: as §1

[7] = test system: Staphylococcus aureus ICB 25768; details: ICB25768, about 10^5 microorganisms/ml inoculum
Description: as §1

For `O=C(Cc1ccccc1)N[C@@H]1C(=O)N2C(C(=O)O)=C(CN3CCN(c4c(F)cc5c(=O)c(C(=O)O)cn(C6CC6)c5c4Cl)CC3)CS[C@H]12` [B], the MIC [1] was 8 µg/mL (≈ 11.5 µM), the MIC [2] was 8 µg/mL (≈ 11.5 µM) and the MIC (Escherichia coli Neumann) was 0.25 µg/mL (≈ 0.359 µM). For the same compound, the MIC (Klebsiella sp. 63) was 1 µg/mL (≈ 1.44 µM), the MIC [3] was 16 µg/mL (≈ 23 µM) and the MIC [4] was 0.125 µg/mL (≈ 0.18 µM). The MIC [5] was 0.03 µg/mL (≈ 0.0431 µM), the MIC [6] was 32 µg/mL (≈ 46 µM) and the MIC [7] was 128 µg/mL (≈ 184 µM).
In the case of `O=C(Cc1ccccc1)N[C@@H]1C(=O)N2C(C(=O)O)=C(CN3CCC[C@H]4CN(c5c(F)cc6c(=O)c(C(=O)O)cn(C7CC7)c6c5Cl)C[C@H]43)CS[C@H]12` [A, 7-[2-([6R,7R ]-2-Carboxy-8-oxo-7-phenylacetylamino-5-thia-1-aza-bicyclo[4.2.0]oct-2-en-3-ylmethyl)-[1S,6S]-2,8-diazabicyclo[4.3.0]non-8-yl]-8-chloro-1-cyclopropyl-6-fluoro-1,4-dihydro-4-oxo-3-quinolinecarboxylic acid], the MIC [1] is reported as 0.25 µg/mL (≈ 0.34 µM), the MIC [2] is reported as 0.25 µg/mL (≈ 0.34 µM) and the MIC (Escherichia coli Neumann) is reported as 0.03 µg/mL (≈ 0.0407 µM). It also gave an MIC (Klebsiella sp. 63) of 0.125 µg/mL (≈ 0.17 µM), an MIC [3] of 4 µg/mL (≈ 5.43 µM) and an MIC [4] of 0.03 µg/mL (≈ 0.0407 µM). For the same compound, the MIC [5] was 0.004 µg/mL (≈ 0.00543 µM), the MIC [6] was 0.25 µg/mL (≈ 0.34 µM) and the MIC [7] was 2 µg/mL (≈ 2.72 µM).
